Experimental data from patent US20220356174A1, “PYRIDIN-2-ONE COMPOUNDS USEFUL AS SMARCA2 ANTAGONISTS” (Epizyme, Inc., priority 2018, published 2022).
Read-outs that look alike come from different tables or passages of the source. Blank lines part the entries; values can stand above or below the compound they belong to.

What was measured:
[1] = target: T1, FL-SMARCA2 (full-length human SMARCA2 isoform 1) (Homo sapiens, UniProt P51531); test: SMARCA2 ATPase activity assay (ADP-Glo, chicken mononucleosome substrate); type: biochemical; settings: ATP 250 uM
T1 construct: FLAG tag (YKDDDDK) (C); made in house; host or cells: Sf21 insect cells (baculovirus, pFastBacI)
Text: Molecular Biology: Full-length human SMARCA2 isoform 1 (P51531) transcript clone was amplified from a cDNA library incorporating an N-terminal HIS tag ([…]) fused directly to Ser2 of SMARCA2 and a C-FLAG tag (YKDDDDK) fused directly to Glu1590 of SMARCA2. The amplified gene was subcloned into pFastBacI (Life Technologies).
Protein Expression: Recombinant baculovirus were generated and protein over-expression was accomplished by infecting exponentially growing Sf21 insect cell culture at 1.24×10^6 cell/ml with an MOI of 0.1. Infections were carried out for 76 hours, harvested by centrifugation, and stored at −80° C. for purification.
Expressed full-length SMARCA2 was purified from cell paste by FLAG affinity chromatography followed by anion exchange chromatography. The protein was dialyzed into a storage buffer containing 25 mM HEPES, 300 mM KCl, 10% Glycerol, pH 7.9, 1 mM TCEP and 0.01% Tween-20. The purity of the protein was measured as 74% using micro-capillary based gel electrophoresis.

FL-SMARCA4 = FL-SMARCA4 (Homo sapiens, UniProt P51532); test: SMARCA4 ATPase activity assay (ADP-Glo, chicken mononucleosome substrate)
[2] = Table 3d.1, ATPase assay, enzyme 5 nM, chicken mononucleosome 10 nM, 30 min preincubation, read-out: FL-SMARCA2 IC>50
[3] = Table 3.1, ATPase assay, enzyme 5 nM, chicken mononucleosome 10 nM, 30 min preincubation
[4] = FL-SMARCA4 IC50, Table 3.2, ATPase assay, enzyme 5 nM, ATP 250 uM, chicken mononucleosome 10 nM, 30 min preincubation
[5] = Table 3a.1, SMARCA2 5 nM, mononucleosome 10 nM
[6] = FL-SMARCA4 IC50, Table 3a.2, SMARCA4 5 nM, ATP 250 uM, mononucleosome 10 nM
[7] = Table 3b.1, SMARCA2 5 nM, mononucleosome 10 nM
[8] = FL-SMARCA4 IC50, Table 3b.2, SMARCA4 5 nM, ATP 250 uM, mononucleosome 10 nM
[9] = Table 3c.1, ATPase assay, enzyme 5 nM, chicken mononucleosome 10 nM, 30 min preincubation
[10] = FL-SMARCA4 IC>50, Table 3c.2, ATPase assay, enzyme 5 nM, ATP 250 uM, chicken mononucleosome 10 nM, 30 min preincubation

T1 sequence (P51531 with tags, fused parts or gaps): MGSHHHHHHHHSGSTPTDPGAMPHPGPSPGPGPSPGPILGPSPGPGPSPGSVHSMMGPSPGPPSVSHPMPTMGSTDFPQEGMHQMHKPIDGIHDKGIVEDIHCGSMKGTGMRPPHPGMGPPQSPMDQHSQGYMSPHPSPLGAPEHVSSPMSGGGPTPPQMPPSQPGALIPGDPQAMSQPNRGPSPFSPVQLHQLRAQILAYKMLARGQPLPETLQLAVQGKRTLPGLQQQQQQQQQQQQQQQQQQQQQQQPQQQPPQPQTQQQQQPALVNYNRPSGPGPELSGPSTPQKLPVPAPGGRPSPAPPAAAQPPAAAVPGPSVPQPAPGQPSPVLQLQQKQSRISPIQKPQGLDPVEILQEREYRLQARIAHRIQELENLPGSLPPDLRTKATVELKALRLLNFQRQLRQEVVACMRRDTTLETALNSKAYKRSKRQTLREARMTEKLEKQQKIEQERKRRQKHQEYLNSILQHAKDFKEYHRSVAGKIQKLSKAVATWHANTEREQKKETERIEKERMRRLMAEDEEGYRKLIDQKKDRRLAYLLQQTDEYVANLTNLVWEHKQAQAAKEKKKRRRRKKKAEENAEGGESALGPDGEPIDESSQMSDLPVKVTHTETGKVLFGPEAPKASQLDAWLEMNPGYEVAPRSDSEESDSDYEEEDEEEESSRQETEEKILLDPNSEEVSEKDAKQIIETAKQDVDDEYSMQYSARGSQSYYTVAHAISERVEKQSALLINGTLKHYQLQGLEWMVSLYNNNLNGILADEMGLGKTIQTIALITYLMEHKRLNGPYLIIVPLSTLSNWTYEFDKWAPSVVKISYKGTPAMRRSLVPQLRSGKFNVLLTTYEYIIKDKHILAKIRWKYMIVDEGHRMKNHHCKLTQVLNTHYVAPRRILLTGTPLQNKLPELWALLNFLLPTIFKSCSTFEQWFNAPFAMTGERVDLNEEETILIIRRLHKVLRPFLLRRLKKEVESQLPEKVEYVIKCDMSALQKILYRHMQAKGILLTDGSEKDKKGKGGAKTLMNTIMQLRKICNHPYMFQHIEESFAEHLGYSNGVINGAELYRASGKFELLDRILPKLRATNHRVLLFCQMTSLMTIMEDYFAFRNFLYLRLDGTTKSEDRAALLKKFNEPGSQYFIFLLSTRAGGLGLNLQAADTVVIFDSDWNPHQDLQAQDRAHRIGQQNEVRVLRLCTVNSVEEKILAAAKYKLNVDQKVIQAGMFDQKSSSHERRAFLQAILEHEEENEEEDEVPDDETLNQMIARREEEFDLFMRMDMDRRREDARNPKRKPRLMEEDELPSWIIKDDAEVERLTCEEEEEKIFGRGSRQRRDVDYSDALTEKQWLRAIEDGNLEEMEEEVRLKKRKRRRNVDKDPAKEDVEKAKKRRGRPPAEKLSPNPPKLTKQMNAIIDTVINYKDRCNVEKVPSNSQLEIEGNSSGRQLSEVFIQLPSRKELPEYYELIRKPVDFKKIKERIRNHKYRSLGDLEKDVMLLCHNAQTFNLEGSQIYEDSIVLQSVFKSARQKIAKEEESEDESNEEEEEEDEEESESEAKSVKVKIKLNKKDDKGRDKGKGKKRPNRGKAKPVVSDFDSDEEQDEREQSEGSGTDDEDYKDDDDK
FL-SMARCA4, sequence (P51532 whole entry): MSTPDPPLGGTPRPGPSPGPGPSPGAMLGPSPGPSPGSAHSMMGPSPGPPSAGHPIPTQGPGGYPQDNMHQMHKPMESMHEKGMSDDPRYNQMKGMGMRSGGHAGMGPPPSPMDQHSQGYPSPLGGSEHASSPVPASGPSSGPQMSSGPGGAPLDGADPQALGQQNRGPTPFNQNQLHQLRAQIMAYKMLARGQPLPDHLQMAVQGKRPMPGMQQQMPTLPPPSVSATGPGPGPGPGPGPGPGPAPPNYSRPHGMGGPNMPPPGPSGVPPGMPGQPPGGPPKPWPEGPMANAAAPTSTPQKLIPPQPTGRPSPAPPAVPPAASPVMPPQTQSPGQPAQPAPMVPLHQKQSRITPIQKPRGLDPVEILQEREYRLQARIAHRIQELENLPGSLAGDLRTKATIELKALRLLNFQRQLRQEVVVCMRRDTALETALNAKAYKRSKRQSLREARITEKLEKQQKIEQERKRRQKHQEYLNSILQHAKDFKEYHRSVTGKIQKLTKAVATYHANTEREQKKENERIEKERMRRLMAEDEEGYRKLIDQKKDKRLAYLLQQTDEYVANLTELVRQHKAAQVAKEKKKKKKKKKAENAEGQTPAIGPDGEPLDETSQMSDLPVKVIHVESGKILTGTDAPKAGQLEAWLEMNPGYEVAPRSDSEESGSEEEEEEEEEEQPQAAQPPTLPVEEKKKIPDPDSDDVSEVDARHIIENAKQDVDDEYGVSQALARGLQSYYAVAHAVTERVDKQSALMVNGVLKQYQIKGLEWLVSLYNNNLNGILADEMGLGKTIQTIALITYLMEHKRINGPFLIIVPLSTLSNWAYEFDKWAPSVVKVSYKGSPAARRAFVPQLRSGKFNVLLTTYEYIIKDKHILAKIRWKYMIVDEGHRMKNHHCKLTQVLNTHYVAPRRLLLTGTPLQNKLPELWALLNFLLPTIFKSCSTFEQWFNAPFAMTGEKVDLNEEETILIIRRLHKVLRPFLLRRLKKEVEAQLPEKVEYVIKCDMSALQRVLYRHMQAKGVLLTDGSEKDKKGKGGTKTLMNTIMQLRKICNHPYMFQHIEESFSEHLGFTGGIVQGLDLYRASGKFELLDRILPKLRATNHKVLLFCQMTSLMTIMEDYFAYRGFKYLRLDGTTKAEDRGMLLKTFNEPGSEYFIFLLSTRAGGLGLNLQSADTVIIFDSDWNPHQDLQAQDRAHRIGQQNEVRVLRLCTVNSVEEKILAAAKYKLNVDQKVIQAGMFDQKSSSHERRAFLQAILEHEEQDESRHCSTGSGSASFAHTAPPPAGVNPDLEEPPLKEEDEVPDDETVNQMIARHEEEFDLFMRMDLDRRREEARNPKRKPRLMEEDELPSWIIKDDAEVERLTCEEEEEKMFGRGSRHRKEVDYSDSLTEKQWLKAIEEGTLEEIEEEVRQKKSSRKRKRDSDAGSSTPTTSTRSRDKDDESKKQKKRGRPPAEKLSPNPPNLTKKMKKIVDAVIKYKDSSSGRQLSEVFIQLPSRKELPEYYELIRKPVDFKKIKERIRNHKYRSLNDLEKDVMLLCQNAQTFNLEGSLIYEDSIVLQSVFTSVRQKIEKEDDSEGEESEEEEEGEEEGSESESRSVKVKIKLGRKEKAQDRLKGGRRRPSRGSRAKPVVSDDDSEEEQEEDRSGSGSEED

Compound: CCn1nc(NC(=O)c2cc(Cl)c(Cl)n2C)ccc1=O [Compound 16d]
- IC50 [1, 2]: 16.7 µM
- IC50 (FL-SMARCA4; FL-SMARCA4 IC50): > 50 µM

Compound: CCn1cc(NC(=O)c2cc(Cl)c(Cl)[nH]2)ccc1=O [Compound 17]
- IC50 [1, 3]: 4.06 µM
- IC50 (FL-SMARCA4; [4]): 26.6 µM

Compound: CCn1cc(NC(=O)c2cncc(Cl)c2)ccc1=O [Compound 17a]
- IC50 [1, 5]: > 50 µM
- IC50 (FL-SMARCA4; [6]): > 50 µM

Compound: O=C(Nc1cc(F)c(=O)n(CCF)c1)c1ccc(Cl)c(Cl)c1 [Compound 17b]
- IC50 [1, 7]: 0.645 µM
- IC50 (FL-SMARCA4; [8]): 4.78 µM

Compound: CN(C)CCc1cc(NC(=O)c2cc(F)c(Cl)s2)cn(CC(F)F)c1=O [Compound 17c]
- IC50 [1, 9]: > 50 µM
- IC50 (FL-SMARCA4; [10]): > 50 µM

Compound: CCn1cc(NC(=O)Nc2ccccn2)ccc1=O [Compound 17d]
- IC50 [1, 2]: > 50 µM
- IC50 (FL-SMARCA4; FL-SMARCA4 IC50): > 50 µM

Compound: CCn1cc(NC(=O)c2ccc(Cl)n2C)ccc1=O [Compound 18]
- IC50 [1, 3]: 19.5 µM
- IC50 (FL-SMARCA4; [4]): > 50 µM

Compound: CCn1cc(NC(=O)c2[nH]c3ccccc3c2C)ccc1=O [Compound 18a]
- IC50 [1, 5]: > 50 µM
- IC50 (FL-SMARCA4; [6]): > 50 µM

Compound: N#Cc1cc(C(=O)Nc2cc(F)c(=O)n(CCF)c2)ccc1Cl [Compound 18b]
- IC50 [1, 7]: 0.917 µM
- IC50 (FL-SMARCA4; [8]): 5.34 µM

Compound: O=C(Nc1cc(-c2cnco2)c(=O)n(CC(F)F)c1)c1sc(C(F)(F)F)cc1Cl [Compound 18c]
- IC50 [1, 9]: > 50 µM
- IC50 (FL-SMARCA4; [10]): > 50 µM

Compound: CCn1cc(NC(=O)c2ccc(Br)n2C)ccc1=O [Compound 19]
- IC50 [1, 3]: > 50 µM
- IC50 (FL-SMARCA4; [4]): > 50 µM

Compound: N#Cc1ccc(C(=O)Nc2cc(F)c(=O)n(CCF)c2)cc1Cl [Compound 19b]
- IC50 [1, 7]: 2.02 µM
- IC50 (FL-SMARCA4; [8]): 12.6 µM

Compound: Cn1ccc(-c2cc(NC(=O)c3sc(C(F)(F)F)cc3Cl)cn(CC(F)F)c2=O)n1 [Compound 19c]
- IC50 [1, 9]: > 50 µM
- IC50 (FL-SMARCA4; [10]): > 50 µM

Compound: CCn1nc(NC(=O)c2cc(Cl)c(Cl)s2)ccc1=O [Compound 19d]
- IC50 [1, 2]: > 50 µM
- IC50 (FL-SMARCA4; FL-SMARCA4 IC50): > 50 µM

Compound: CCn1cc(NC(=O)c2ccc(Cl)o2)ccc1=O [Compound 20]
- IC50 [1, 3]: > 50 µM
- IC50 (FL-SMARCA4; [4]): > 50 µM

Compound: CCn1cc(NC(=O)c2cn3ccccc3n2)ccc1=O [Compound 20a]
- IC50 [1, 5]: > 50 µM
- IC50 (FL-SMARCA4; [6]): > 50 µM

Compound: N#Cc1ccc(C(=O)Nc2cc(F)c(=O)n(CCF)c2)cc1C#N [Compound 20b]
- IC50 [1, 7]: 2.46 µM
- IC50 (FL-SMARCA4; [8]): 11.5 µM

Compound: O=C(Nc1cc(-c2cn[nH]c2)c(=O)n(CC(F)F)c1)c1sc(C(F)(F)F)cc1Cl [Compound 20c]
- IC50 [1, 9]: > 50 µM
- IC50 (FL-SMARCA4; [10]): > 50 µM

Compound: CCn1nc(NC(=O)c2cnc(Cl)s2)ccc1=O [Compound 20d]
- IC50 [1, 2]: 7.37 µM
- IC50 (FL-SMARCA4; FL-SMARCA4 IC50): 28.9 µM

Compound: CCn1cc(NC(=O)c2cn3cccnc3n2)ccc1=O [Compound 21a]
- IC50 [1, 5]: > 50 µM
- IC50 (FL-SMARCA4; [6]): > 50 µM

Compound: CN(C)C(=O)c1ccc(C(=O)Nc2cc(F)c(=O)n(CCF)c2)cc1 [Compound 21b]
- IC50 [1, 7]: > 50 µM
- IC50 (FL-SMARCA4; [8]): > 50 µM

Compound: O=C(Nc1ccc(=O)n(CC(F)(F)F)n1)c1cc(Cl)c(Cl)s1 [Compound 21d]
- IC50 [1, 2]: 16.7 µM
- IC50 (FL-SMARCA4; FL-SMARCA4 IC50): > 50 µM

Now from value to compound:

- IC50 [1, 5]: > 50 µM
- IC50 (FL-SMARCA4; [6]): > 50 µM
Compound: CCn1cc(NC(=O)c2c[nH]c3ccccc23)ccc1=O [Compound 22a]

- IC50 [1, 7]: > 50 µM
- IC50 (FL-SMARCA4; [8]): > 50 µM
Compound: CC(=O)Nc1ccc(C(=O)Nc2cc(F)c(=O)n(CCF)c2)cc1Cl [Compound 22b]

- IC50 [1, 2]: 6.38 µM
- IC50 (FL-SMARCA4; FL-SMARCA4 IC50): 28.9 µM
Compound: CCCn1nc(NC(=O)c2cc(Cl)c(Cl)s2)ccc1=O [Compound 22d]

- IC50 [1, 5]: > 50 µM
- IC50 (FL-SMARCA4; [6]): > 50 µM
Compound: CCn1cc(NC(=O)c2cnc3ncccn23)ccc1=O [Compound 23a]

- IC50 [1, 7]: > 50 µM
- IC50 (FL-SMARCA4; [8]): > 50 µM
Compound: NS(=O)(=O)c1ccc(C(=O)Nc2cc(F)c(=O)n(CCF)c2)cc1Cl [Compound 23b]

- IC50 [1, 9]: 0.173 µM
- IC50 (FL-SMARCA4; [10]): 0.219 µM
Compound: O=C(Nc1cc(F)c(=O)n(CC(F)F)c1)c1cc(C#Cc2ccncc2)cs1 [Compound 23c]

- IC50 [1, 2]: 12.5 µM
- IC50 (FL-SMARCA4; FL-SMARCA4 IC50): 15.3 µM
Compound: O=C(Nc1ccc(=O)n(CC(F)(F)F)n1)c1cnc(Cl)s1 [Compound 23d]

- IC50 [1, 5]: > 50 µM
- IC50 (FL-SMARCA4; [6]): > 50 µM
Compound: CCn1cc(NC(=O)c2c[nH]c3c(Cl)cccc23)ccc1=O [Compound 24a]

- IC50 [1, 9]: 11.3 µM
- IC50 (FL-SMARCA4; [10]): 38.7 µM
Compound: O=C(Nc1cc(F)c(=O)n(CC(F)F)c1)c1cc(CC(F)(F)F)c(Cl)s1 [Compound 24c]

- IC50 [1, 2]: 18.4 µM
- IC50 (FL-SMARCA4; FL-SMARCA4 IC50): > 50 µM
Compound: CCn1cc(NC(=O)c2cc(Cl)c(Cl)s2)c(Cl)cc1=O [Compound 24d]
